{"source": "patent US20090042861A1", "about": "“Prophylactic or Therapeutic Agent for Depression or Anxiety Disorder” (Takeda Pharmaceutical Company Limited, priority 2005, published 2009)", "key": {"male Wister (Jcl) rats [1]": {"tested_on": "male Wister (Jcl) rats", "experiment": "Water-drinking conflicting test", "assay_type": "in vivo, rat", "details": "Example 1"}, "male Wister (Jcl) rats [2]": {"tested_on": "male Wister (Jcl) rats", "experiment": "Elevated plus-maze test", "assay_type": "in vivo, rat", "details": "Example 3", "method": "Animal: male Wister (Jcl) rats were purchased at the age of 5 weeks old, and used at the age of 6 weeks old.\nAn elevated plus-maze test equipment having arm 50 cm long by 10 cm wide was used. Its height was 40 cm, and the height of closed arm was adjusted to the same. Black was used as the color of wall. Lighting in experiment room was set to 5 lux of illuminance on the equipment.\nThe animals were handled from 2 days before test. Test was carried out between 8 a.m. and […]., and the animals were naturalized in the conduct test room at a measurement illuminance from 1 hour before the start of test.\nThe drug used (compound A, melatonin) was suspended in 0.5% methylcellulose physiological saline to adjust dosage to 2 mL/kg, and administered intraperitoneally. To the vehicle administration group, a 0.5% methylcellulose physiological saline was administered in the same way.\nIn the elevated plus-maze test, the animal was put in the central region of maze with the head to the direction of closed arm, and the conduct of 5 minutes duration was observed. Measurement items were number of entries into open arms and time spent in open arms which were used as an indicator of anxiety conducts, and it was considered that the more the number of entries into open arms, time spent in open arms and dipping frequency are, the less the anxiety conducts are. Further, the number of entries into closed arms was counted, which was used as an indicator of amount of motor-activity. […] Test was performed with n=10 for each group. Trial was carried out over 2 days, and 2 days' data were summed up as one test.\nSignificant difference test was performed with using Williams' test for vehicle administration group and multigroup drug administration groups."}, "male ICR (Jcl) mice": {"tested_on": "male ICR (Jcl) mice", "experiment": "Mouse tail suspension test", "assay_type": "in vivo", "details": "for moving power at the trial of tail suspension test: FIGS. 9, 10", "method": "Action on immobility and moving power in a single application test of Paroxetine and compound A Used Animals: male ICR (Jcl) mice of 6 weeks old were used. Drug Administration Group and Test Method: Test was carried out for the following conditions. (each group n=12)\n(§1) Paroxetine was dissolved in 0.5% methylcellulose physiological saline, and compound A was suspended in 0.5% methylcellulose aqueous solution for injection. To control group, a 0.5% methylcellulose physiological saline for injection was administered as vehicle. A dose of 20 ml/kg was administered intraperitoneally, respectively. Administration was carried out 30 minutes before trial of tail suspension.\nAnimals were put in a 5-row-cage with 8 each cage, and fully habituated. Drug administrations and trials were performed between 13:00 and 17:00.\nAn automated measuring equipment made according to the method of Steru (Psycopharmacology 85, 367-370, 1985) was used for measurement. The mouse was suspended by the tail in a soundproof box (16 cm×38 cm×33 cm) divided individually, and then the immobility rate of 10 minutes duration was measured. Tail suspension was carried out by fixing a 5 cm wire to a sensor and suspending the mouse with fixing its tail with a tape at the end of the wire. By weighing every 10 msec, the movement of the mouse was calculated through A/D converter as moving power for one second. The moving power of less than 1% of body weight of mouse was considered to be in the immobile state, and the immobility rate for every one minute was measured. Test was carried out for 10 minutes, and all the experiments were controlled with personal computer (NEC-9801).\nAction on immobility and moving power in a combined application test of Paroxetine and compound A Used Animals: male ICR (Jcl) mice of 6 weeks old were used. Drug Administration Group and Test Method: Test was carried out for the following conditions. (each group n=15-16)\nas §1, with “vehicle. As a drug solution to be combined, a drug solution having twice concentration of final concentration was prepared, and adjusted to final concentration by mixing equal amounts.” for “vehicle.”"}}, "data": [{"compound": "CN1C(=O)CN=C(c2ccccc2)c2cc(Cl)ccc21", "note": "[Diazepam]", "values": [{"measurement": "effect in this system (control drug)", "setting": "male Wister (Jcl) rats [1]; control drug, dose not given", "value": "exhibits an effect"}, {"measurement": "effect in this system (control drug)", "setting": "male Wister (Jcl) rats [2]; control drug, dose not given", "value": "exhibits an effect"}]}, {"compound": "CCC(=O)NCC[C@@H]1CCc2ccc3c(c21)CCO3", "note": "[Compound A, (S)-N-[2-(1,6,7,8-Tetrahydro-2H-indeno[5,4-b]furan-8-yl)ethyl]propionamide]", "values": [{"measurement": "lick frequency", "setting": "male Wister (Jcl) rats [1]; 30 mg/kg intraperitoneally, test 30 minutes after administration, vs vehicle group, Williams' test, FIG. 1", "value": "significant increasing effect"}, {"measurement": "shock frequency", "setting": "male Wister (Jcl) rats [1]; 30 mg/kg intraperitoneally, test 30 minutes after administration, vs vehicle group, Williams' test, FIG. 2", "value": "significant increasing effect"}, {"measurement": "time spent in open arms", "setting": "male Wister (Jcl) rats [2]; intraperitoneal, 5 minutes observation, vs vehicle group, FIG. 5", "value": "an increase"}, {"measurement": "number of entries into open arms", "setting": "male Wister (Jcl) rats [2]; intraperitoneal, 5 minutes observation, vs vehicle group, FIG. 6", "value": "an increase"}, {"measurement": "immobility", "setting": "male ICR (Jcl) mice; Example 4, single application, 3, 10 and 30 mg/kg (i.p.), 30 minutes before trial, FIGS. 7, 8", "value": "didn't have an affect"}, {"measurement": "moving power at the trial of tail suspension test", "setting": "male ICR (Jcl) mice; Example 4, single application, 3, 10 and 30 mg/kg (i.p.)", "value": "didn't have an affect"}, {"measurement": "effect on the antidepressant action of Paroxetine", "setting": "male ICR (Jcl) mice; Example 5, Compound A 1, 3 and 10 mg/kg with Paroxetine 1 mg/kg (i.p.)", "value": "enhances the antidepressant action of Paroxetine"}]}, {"compound": "Fc1ccc([C@@H]2CCNC[C@H]2COc2ccc3c(c2)OCO3)cc1", "note": "[Paroxetine]", "values": [{"measurement": "moving power at the trial of tail suspension test", "setting": "male ICR (Jcl) mice; Example 4, single application, 0.3, 1, 3 and 10 mg/kg (i.p.), vs vehicle group", "value": "increase a little"}]}, {"compound": "COc1ccc2[nH]cc(CCNC(C)=O)c2c1", "note": "[melatonin]", "values": [{"measurement": "anti-conflicting effect", "setting": "male Wister (Jcl) rats [1]; 30 mg/kg intraperitoneally, test 30 minutes after administration, vs vehicle group, Williams' test", "value": "a little anti-conflicting effect was observed, but it was not a significant effect"}, {"measurement": "action in elevated plus-maze (open arm entries and time)", "setting": "male Wister (Jcl) rats [2]; intraperitoneal, vs vehicle group, Williams' test", "value": "a significant action was not observed"}]}]}
